Type in all cases: cell-based
The target in test [1] is T1, CXCR4 receptor (Homo sapiens, UniProt P61073). Kind of test: cAMP signaling assay, forskolin-induced, PathHunter CHO-K1 CXCR4 cells. The method, then:
The CXCR4 receptor is a G-protein coupled receptor (GPCR) coupled to the Gi class, whose primary role is inhibition of adenylate cyclase. We tested the ability of UCUF-728 to induce a Gi-mediated cAMP-inhibitory cellular response. […] (Figure 2B).
Forskolin at final concentration of 0.5 mM was added to all wells using the TECAN dispenser. […] of PathHunter CHO-K1 CXCR4 cells (DiscoverX, Fremont, CA, USA) were added to compounds at 3000 cells/well, centrifuged at 1000 rpm for 30 s and incubated for 30 min at room temperature. DMSO (Sigma Aldrich, St. Louis, MO, USA) was normalized to 0.5%. […] of 4X Eu-cAMP tracer working solution were added to all wells, followed by addition of 5 μL of 4X Ulight-anti-cAMP working solution to all wells. Plates were centrifuged at 1000 rpm for 1 min and incubated for 1 h at room temperature, then read using CLARIOstar Plus (BMG LABTECH Inc., Cary, NC, USA) Lance CAMP protocol.

The subject of the next test is CEM-CCRF cells. Kind of test: 96 wells transwell migration assay in CEM human lymphoblast cells. From the text:
Thus, to confirm CXCR4 functional activity, we evaluated UCUF-728 in a 96 wells transwell migration assay in CEM human lymphoblast cells. […] (Supplemental Figure S7). From the analog structure–activity relationship studies and characterization studies in the chemotaxis assay, cAMP signaling and CXCR4 binding assay, we identified UCUF-728 as a potent and functionally selective CXCR4 receptor modulator.
CEM-CCRF (ATCC CCL-119) were suspended in RPMI 1640 (Corning; 10-040-CV) at 5.0 × 10^5 cells/mL and allowed to incubate in cell culture incubator at 37 °C with 5% CO2 for one hour. […] Following 1 h cell incubation and compound dispensing, 150 μL of RPMI 1640 supplemented with 2% Fetal Bovine Serum was added to each well of the compound receiver tray, and 50 μL of 5 × 10^5 cells/mL cell suspension in RPMI were added to each well of the top filter plate. Plates were reassembled and placed in a cell culture incubator at 37 °C with 5% CO2 for three hours. After incubation, Multi-Screen plate was disassembled and 100 μL of solution was collected from compound receiver tray and transferred to 96 well luminescent plate and an equal volume of ATPLite 1step luminescence reagent (Perkin Elmer, Waltham, MA, USA) was added to each well. Luminescence was measured using the CLARIOstar Plus (BMG LABTECH Inc., Cary, NC, USA).

For test [2], the target named is T1, CXCR4 receptor. In words: primary 1536 w β-arrestin recruitment assay (CXCR4-bla U2OS cells, SDF-1α from R&D systems). More on the design: host or cells: Tango CXCR4-bla U2OS cells. Particulars: for Emax: U2OS. As to the method:
In our effort to identify CXCR4 activators from the NIH Molecular Library Small Molecule Repository (MLSMR), we developed a primary screening assay to measure β-arrestin recruitment to the activated G-protein coupled receptor (GPCR) by a Florescence Resonance Energy Transfer (FRET) in U2OS cells, overexpressing the CXCR4 receptor engineered with a β-lactamase (bla) reporter system. CXCR4-bla cells plated in 1536 w were stimulated in the presence of 10 µM compound concentration. […] Using this approach, we successfully screened the NIH MLSMR of 370,620 compounds (Figure 1A,B) and identified 303 hits (hit rate = 0.08%). […] These compounds were graded according to activity and structure, resulting in 86 compounds that met the criteria as potential CXCR4 agonists for further characterization (Figure 1B). The workflow for high-throughput screening and this study is illustrated in Figure 1B.
Chemical stability, synthetic tractability, solubility and complete dose response and potency criteria led to the prioritization of the 5-aryl-2-cyclopropyl oxazole scaffold, represented by primary hit Compound 2 (Table 1). The early structure–activity relationship was established around the 5-aryl-2-cyclopropyl oxazole core with commercially available analogs with diverse substituents in the sulfonanilide ring of the scaffold. […] Keeping the 2-OMe substituent constant, we screened a small set of electron withdrawing and electron rich substituents at the 5-position of the anilide ring (entries 16–19). […] The analytical data for UCUF-728 is shown in Supplemental Figures S1–S4.

Experimental findings from paper PMC8879702, “Discovery of Small Molecule Activators of Chemokine Receptor CXCR4 That Improve Diabetic Wound Healing” (International Journal of Molecular Sciences, 2022) are described below.

T1 sequence (P61073 whole entry): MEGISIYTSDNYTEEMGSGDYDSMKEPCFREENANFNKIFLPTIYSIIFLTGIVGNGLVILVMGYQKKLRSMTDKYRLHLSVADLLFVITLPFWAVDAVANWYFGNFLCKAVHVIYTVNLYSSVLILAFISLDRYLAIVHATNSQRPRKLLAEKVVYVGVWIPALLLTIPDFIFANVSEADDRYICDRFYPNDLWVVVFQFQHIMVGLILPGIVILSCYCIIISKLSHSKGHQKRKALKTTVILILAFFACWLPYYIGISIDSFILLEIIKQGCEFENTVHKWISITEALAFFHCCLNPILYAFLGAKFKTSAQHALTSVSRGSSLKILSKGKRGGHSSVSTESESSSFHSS

Regarding `c1cc(CN2CCCNCCNCCCNCC2)ccc1CN1CCCNCCNCCCNCC1` [AMD3100, reference compound], the “block of SDF-1α inhibition of forskolin-induced cAMP” value at CXCR4 receptor [1] (maximal response at 40 nM SDF-1α) is reported as “dose-dependently blocked”. Besides, the IC50 with CEM-CCRF cells (Homo sapiens, normalized to media only and 6nM SDF-1a, read-out: logIC50 inhibition of migration (converted)) is 31.6 nM.
What is called EC50 is the concentration needed to bring the measured effect to its halfway point. Higher therefore signals lower potency in that assay. Molecule `O=S(=O)(Nc1ccccc1)c1ccc(-c2cnc(C3CC3)o2)cc1` [Compound 1] showed an EC50 on CXCR4 receptor [2] of over 80 µM.
What is called Emax is the maximal effect, on the per cent scale that the assay sets. On CXCR4 receptor [2], `Cc1ccccc1NS(=O)(=O)c1ccc(-c2cnc(C3CC3)o2)cc1` [Compound 2] returned an EC50 of 5.9 µM and an Emax of 27%.
Taken in the same sequence, the figures for `CCc1ccccc1NS(=O)(=O)c1ccc(-c2cnc(C3CC3)o2)cc1` [Compound 3] were 2.6 µM and 38%.
For `COc1ccccc1NS(=O)(=O)c1ccc(-c2cnc(C3CC3)o2)cc1` [Compound 4], on CXCR4 receptor [2], a half-maximal effect (EC50) was put at 6.1 µM and the Emax amounted to 45%.
With `CCOc1ccccc1NS(=O)(=O)c1ccc(-c2cnc(C3CC3)o2)cc1` [Compound 5], on CXCR4 receptor [2], the EC50 worked out at 1 µM and the Emax turned out to be 46%.
The like results for `O=S(=O)(Nc1ccccc1Cl)c1ccc(-c2cnc(C3CC3)o2)cc1` [Compound 6] were, in that order, 22 µM and 35%.
Molecule `O=S(=O)(Nc1ccccc1F)c1ccc(-c2cnc(C3CC3)o2)cc1` [Compound 7] showed an EC50 on CXCR4 receptor [2] of over 80 µM.
On the same count and under the same terms, the figure for `COc1cccc(NS(=O)(=O)c2ccc(-c3cnc(C4CC4)o3)cc2)c1` [Compound 8] is over 80 µM.
Take `CCOc1ccc(NS(=O)(=O)c2ccc(-c3cnc(C4CC4)o3)cc2)cc1` [Compound 9]: on CXCR4 receptor [2], the EC50 was 44.3 µM and the Emax was found to be 38%.
At CXCR4 receptor [2], `Cc1cccc(NS(=O)(=O)c2ccc(-c3cnc(C4CC4)o3)cc2)c1C` [Compound 10] registered an EC50 of 1.9 µM and an Emax of 40%.
Regarding `Cc1ccc(NS(=O)(=O)c2ccc(-c3cnc(C4CC4)o3)cc2)cc1C` [Compound 11], the EC50 on CXCR4 receptor [2] is over 10 µM.
At CXCR4 receptor [2], `Cc1ccc(NS(=O)(=O)c2ccc(-c3cnc(C4CC4)o3)cc2)c(C)c1` [Compound 12] gave an EC50 of 3.4 µM and an Emax of 38%.
The like results for `Cc1ccc(C)c(NS(=O)(=O)c2ccc(-c3cnc(C4CC4)o3)cc2)c1` [Compound 13] were, in that order, 0.7 µM and 42%.
The like results for `Cc1cccc(C)c1NS(=O)(=O)c1ccc(-c2cnc(C3CC3)o2)cc1` [Compound 14] were, in that order, 0.6 µM and 45%.
As to `Cc1cc(C)cc(NS(=O)(=O)c2ccc(-c3cnc(C4CC4)o3)cc2)c1` [Compound 15], on CXCR4 receptor [2], the EC50 amounted to 3.1 µM and the Emax amounted to 39%.
The like results for `COc1ccc(Cl)cc1NS(=O)(=O)c1ccc(-c2cnc(C3CC3)o2)cc1` [Compound 16] were, in that order, 1.65 µM and 47%.
Taken in the same sequence, the figures for `COc1ccc(F)cc1NS(=O)(=O)c1ccc(-c2cnc(C3CC3)o2)cc1` [Compound 17] were 7.3 µM and 42%.
As for `COc1ccc(C)cc1NS(=O)(=O)c1ccc(-c2cnc(C3CC3)o2)cc1` [Compound 18], on CXCR4 receptor [2], the EC50 stood at 0.9 µM and the Emax worked out at 48%.
On to `COc1ccc(NS(=O)(=O)c2ccc(-c3cnc(C4CC4)o3)cc2)cc1OC` [Compound 20], for which the EC50 on CXCR4 receptor [2] was over 80 µM.
As for `COc1cc(NS(=O)(=O)c2ccc(-c3cnc(C4CC4)o3)cc2)cc(OC)c1` [Compound 21], at CXCR4 receptor [2], a half-maximal response (EC50) required 5.6 µM and the Emax was found to be 48%.
Consider SDF-1α, for which the “inhibition of forskolin-induced adenylate cyclase (cAMP signaling)” value on CXCR4 receptor [1] (CHO-K1 CXCR4 overexpressed cells) is given as “inhibited forskolin-induced adenylate cyclase”. Besides, in the test on CEM-CCRF cells (compound in lower channel, 3 h), the “induction of cell migration” value was “induced migration in the typical bell-shaped curve”.
